Results: patent US7662842B2, “Thiazolidinone amides, thiazolidine carboxylic acid amides, and serine amides, including polyamine conjugates thereof, as selective anti-cancer agents” (Ohio State Univesity Research Foundation, priority 2003, dated 2010)

Tests used:
Type in all cases: cell-based
[1] = system: human dermal fibroblasts; test: Sulforhodamine B assay, fibroblast control cells; conditions: Homo sapiens, Fibroblast, 48 h, SRB assay, 48 h incubation
[2] = system: SKMEL-188 melanoma cells; test: DNA content analysis by flow cytometry; conditions: SKMEL-188, 48 hours, 6 μM and 60 μM, FIG. 11B, Hydrochloride
Description: SKMEL-188 melanoma cells were incubated with Compound 4(R) at 60 μM for 48 hours. FIG. 11A is a graph showing the cytotoxicity as measured by LDH release from the cells following treatment. Data is presented as mean±SEM (n=8), *p<0.05, **p<0.005. FIG. 11B is a pair of graphs that show the DNA content, as measured by flow cytometry, of cells that were exposed to control (left) and Compound 4(R) (right).
DNA Content Analysis: SKMEM-188 cells were seeded in 10 cm Petri dishes at a density of 10^6 cell per dish. At 12 hours, the medium was changed to 5% FBS with different concentrations of the testing compound. Cells were incubated for 48 hours, and media with compounds were changed every 24 hours. Cells were trypsinized, washed with PBS, and fixed in ice-cold 70% ethanol. After fixing, the ethanol was removed by centrifugation, and cells were incubated in phosphate-citrate buffer (0.2M Na2HPO4, 4 mM citric acid, pH=7.8) for 1 hour. […] Samples were shaken for 30 minutes, and analyzed with FACS Caliber cytometer (Becton Dickinson, San Diego, Calif.). Data was analyzed and graphs were prepared using Modfit 2.0 (Verity Sofware House, Topsham, Me.).
To examine more closely the cell death induced by the tested compounds, LDH release was measured by calorimetric assay and DNA content was analyzed by flow cytometry. […]

[3] = system: SKMEL-188 and WM-164 cell lines; test: SRB assay, statements on both melanoma cell lines
Description: Louis, Mo.). WM-164 cells (gift of Dr. Meenhard Herlyn, Wistar Inst., Philadelphia, Pa.) and human dermal fibroblasts (Cascade Biologics, Inc., Portland, Oreg.) were cultured in DMEM medium (Cellgro Mediatech, Inc.) supplemented with 5% fetal bovine serum, 1% antibiotic.antimycotic mixture and bovine insulin ([…], Sigma-Aldrich, Inc.). Human dermal fibroblasts were used as a control to examine the effects of compounds on stromal environment. Thus, the effect of the various compounds on melanoma cells versus fibroblasts would document their potential selectivity. Sulforhodamine B Assay: Cells were seeded into 96-well plates at 5000 cells/well. After 12 hours, media were changed and serial dilutions of compounds were added. Cells were incubated with each compound for 48 hours. Fresh media containing the test compound were changed ever 24 hours. Thereafter, total cell protein corresponding to cell numbers (both viable and non-viable cells) were measured using the sulforhodamine B (SRB) assay according to manufacturer's protocol (Sigma-Aldrich, Inc.) (Rubinstein et al., “Comparison of in vitro Anticancer Drug-screening Data Generated with a Tetrazolium Assay Versus a Protein Assay Against a Diverse Panel of Human Tumor Cell Lines,” J. Natl. Cancer Inst. 82:1113-1118 (1990); Dothager et al., “Synthesis and Identification of Small Molecules that Potently Induce Apoptosis in Melanoma Cells Through GI Cell Cycle Arrest,” J. Am. Chem. Soc. 127:8686-8696 (2005), each of which is hereby incorporated by reference in its entirety). Briefly, cells were fixed with trichloracetic acid, washed and incubated with sulforhodamine B for 30 minutes. After another wash, dye incorporated into the cells was solubilized and measured using a plate reader at 565 nm. Statistical Analysis: Data is presented as mean±SEM (n=6-8). […] Statistical analyses were performed with Student's t-test (*p<0.05; **p<0.005). […] DTIC and Taxol were assayed in the same way for comparison and served as internal quality controls in the different batches of assay. For comparison, the activities of 5R and 5S were measured.

IC50 ([3]; 48 h, read-out: IC50 against both melanoma cell lines): ~0.5 µM
Structure (SMILES): CCCCCCCCCCCCCCNC(=O)[C@@H]1CSC(c2ccccc2)N1.Cl (mixture of isomers) [Compound 4, (2RS, 4R)-2-Phenylthiazolidine-4-carboxylic acid tetradecylamide Hydrochloride]
IC50 [1]: 6.1 µM
DNA content / mode of cell death ([2]; listed as 4 (R enantiomer)): causes necrotic cell death
DNA content / mode of cell death ([2]; listed as 4R): disappearance of peaks corresponding to viable, proliferating cells
Selectivity against both neoplastic cell lines (versus fibroblasts) ([3]; melanoma cells versus fibroblasts): over 10 fold
